Results published in US9499509B2, “Dihydrochalcone derivatives and their use as antibiotic agents” (UNIVERSITÉ DU QUÉBEC À CHICOUTIMI, priority 2012, dated 2016).
In brackets after ≈: the same amount, converted by molar mass.

Columns and labels:
[1] = tested on: WS-1 cell lines; assay: Cytotoxicity assay on WS-1 (Example 2); type: cell-based; set-up: unit not given here; conditions: Table 7; WS-1, 48 h
Procedure: Cytotoxicity assay. […] The WS-1 cell lines were provided by ATCC. […] The compounds tested were then added at 8 different concentrations. […] In Table 7, the therapeutic indexes of compounds IV to XXI are presented.

[2] = tested on: MRSA strains; assay: Antibiotic assay (absorption 660 nm, Example 2), MRSA strains; type: cell-based, Staphylococcus aureus
Procedure: (§1) Antibiotic agents. Gentamicin sulfate was provided by Calbiochem. Chloramphenicol was provided by Sigma-Aldrich.
(§2) Antibiotic assay. […] The bacteria strains were inoculated in nutrients broth. […] All bacteria were plated in nutrients broth at a concentration of 450 000 bacteria/m L.
(§3) Compounds IV to XXI were diluted in dimethylsulfoxide. […] The compounds were tested at 8 different concentrations.
(§4) Each well contained: 100 μL of bacteria, 100 μL of the compounds tested. The plates were incubated at 37° C. for 6 h. The absorption was read using a Varioskan flash multimode Reader™ (Thermo Scientific) at 660 nm.
(§5) MRSA. Ten (10) strains of MRSA obtained as described above were tested along with an S. aureus wild type (WT) strain (ATCC 25923).

[3] = tested on: S. aureus wild type strain (ATCC 25923); assay: Antibiotic assay (absorption 660 nm, Example 2), S. aureus wild type; type: cell-based, Staphylococcus aureus; conditions: for MIC: S. aureus WT (ATCC 25923); for S. aureus WT ATCC 25923 (toxicity on bacteria): Table 7, same values as MIC of Table 6
Procedure: as §1, §2, §3, §4, §5

Row | Compound | MIC ([2]; MRSA 1) [µM] | MIC ([2]; MRSA 2) [µM] | MIC ([2]; MRSA 3) [µM] | MIC ([2]; MRSA 4) [µM] | MIC ([2]; MRSA 5) [µM] | MIC ([2]; MRSA 6) [µM] | MIC ([2]; MRSA 7) [µM] | MIC ([2]; MRSA 8) [µM] | MIC ([2]; MRSA 9) [µM] | MIC ([2]; MRSA 10) [µM] | MIC [3] [µM] | WS-1 (toxicity on normal cells, fibroblast) [1] | S. aureus WT ATCC 25923 (toxicity on bacteria) [3]
1 | COc1cc(O)c(C(=O)CCc2ccc(O)cc2)c2c1CC[C@H](c1ccc(O)cc1)O2 [XII] | 0.55 ± 0.07 (≈ 0.231 µg/mL) | 0.65 ± 0.03 (≈ 0.273 µg/mL) | 1.10 ± 0.07 (≈ 0.463 µg/mL) | 0.64 ± 0.02 (≈ 0.269 µg/mL) | 0.60 ± 0.01 (≈ 0.252 µg/mL) | 0.76 ± 0.04 (≈ 0.32 µg/mL) | 0.57 ± 0.06 (≈ 0.24 µg/mL) | 0.641 ± 0.01 (≈ 0.27 µg/mL) | 0.86 ± 0.03 (≈ 0.362 µg/mL) | 0.7 ± 0.1 (≈ 0.294 µg/mL) | 0.58 ± 0.02 (≈ 0.244 µg/mL) | >50 | 0.58 ± 0.02
2 | O=C(CCc1ccccc1)c1c(O)cc(O)c2c1O[C@@H](c1ccc(O)cc1)CC2 [VI] | 3.5 ± 0.1 (≈ 1.37 µg/mL) | 2.9 ± 0.2 (≈ 1.13 µg/mL) | 3.8 ± 0.3 (≈ 1.48 µg/mL) | 5.2 ± 0.4 (≈ 2.03 µg/mL) | 4.9 ± 0.6 (≈ 1.91 µg/mL) | 14.2 ± 0.9 (≈ 5.54 µg/mL) | 3.4 ± 0.2 (≈ 1.33 µg/mL) | 3.8 ± 0.3 (≈ 1.48 µg/mL) | 4.7 ± 0.2 (≈ 1.84 µg/mL) | 4.65 ± 0.06 (≈ 1.82 µg/mL) | 2.7 ± 0.3 (≈ 1.05 µg/mL) | >50 | 2.7 ± 0.3
3 | O=C(CCc1ccccc1)c1c(O)cc2c(c1O)CC(O)C(c1ccc(O)cc1)O2 (racemic) [XIII] | 2.9 ± 0.2 (≈ 1.18 µg/mL) | 2.7 ± 0.1 (≈ 1.1 µg/mL) | 7.8 ± 0.5 (≈ 3.17 µg/mL) | 6.8 ± 0.7 (≈ 2.76 µg/mL) | 2.7 ± 0.3 (≈ 1.1 µg/mL) | 5.4 ± 0.4 (≈ 2.19 µg/mL) | 2.0 ± 0.2 (≈ 0.813 µg/mL) | 3.4 ± 0.3 (≈ 1.38 µg/mL) | 2.9 ± 0.1 (≈ 1.18 µg/mL) | 4.2 ± 0.8 (≈ 1.71 µg/mL) | 3.2 ± 0.2 (≈ 1.3 µg/mL) | 10.1 ± 0.8 | 3.2 ± 0.2

Now from value to compound, other results behind:

Row | MIC ([2]; MRSA 1) [µM] | MIC ([2]; MRSA 2) [µM] | MIC ([2]; MRSA 3) [µM] | MIC ([2]; MRSA 4) [µM] | MIC ([2]; MRSA 5) [µM] | MIC ([2]; MRSA 6) [µM] | MIC ([2]; MRSA 7) [µM] | MIC ([2]; MRSA 8) [µM] | MIC ([2]; MRSA 9) [µM] | MIC ([2]; MRSA 10) [µM] | MIC [3] [µM] | Compound | WS-1 (toxicity on normal cells, fibroblast) [1] | S. aureus WT ATCC 25923 (toxicity on bacteria) [3]
4 | 24.3 ± 0.9 (≈ 9.88 µg/mL) | 27 ± 1 (≈ 11 µg/mL) | 29 ± 3 (≈ 11.8 µg/mL) | 22 ± 2 (≈ 8.94 µg/mL) | 18 ± 2 (≈ 7.32 µg/mL) | 18.9 ± 0.4 (≈ 7.68 µg/mL) | 20 ± 1 (≈ 8.13 µg/mL) | 17 ± 2 (≈ 6.91 µg/mL) | 30 ± 1 (≈ 12.2 µg/mL) | 7.8 ± 0.3 (≈ 3.17 µg/mL) | 13 ± 1 (≈ 5.28 µg/mL) | O=C(CCc1ccccc1)c1c(O)cc2c(c1O)CC(O)C(c1ccc(O)cc1)O2 (centres unmarked) [XV] | >50 | 13 ± 1
5 | 14 ± 1 (≈ 6.11 µg/mL) | 11.4 ± 0.5 (≈ 4.98 µg/mL) | 8.9 ± 0.3 (≈ 3.88 µg/mL) | 7.6 ± 0.2 (≈ 3.32 µg/mL) | 3.8 ± 0.3 (≈ 1.66 µg/mL) | 11.2 ± 1.0 (≈ 4.89 µg/mL) | 12.1 ± 0.7 (≈ 5.28 µg/mL) | 7.0 ± 1.0 (≈ 3.06 µg/mL) | 12 ± 1 (≈ 5.24 µg/mL) | 12.6 ± 0.3 (≈ 5.5 µg/mL) | 14.0 ± 0.8 (≈ 6.11 µg/mL) | COc1ccc(CCC(=O)c2c(O)cc(O)c3c2OC(c2ccc(O)cc2)C(O)C3)cc1 (centres unmarked) [XX] | >50 | 14.0 ± 0.8
6 | <0.39 | <0.39 | <0.39 | <0.39 | <0.39 | <0.39 | <0.39 | <0.39 | <0.39 | <0.39 | <0.39 | COc1cc(O)c(C(=O)CCc2ccc(O)cc2)c2c1CC[C@@H](c1ccc(O)cc1)O2 [XI] | >50 | <0.39
7 | 2.6 ± 0.1 (≈ 1.13 µg/mL) | 2.4 ± 0.1 (≈ 1.05 µg/mL) | 4.3 ± 0.4 (≈ 1.88 µg/mL) | 2.9 ± 0.6 (≈ 1.27 µg/mL) | 3.1 ± 0.6 (≈ 1.35 µg/mL) | 2.8 ± 0.2 (≈ 1.22 µg/mL) | 2.6 ± 0.1 (≈ 1.13 µg/mL) | 2.7 ± 0.2 (≈ 1.18 µg/mL) | 3.0 ± 0.3 (≈ 1.31 µg/mL) | 2.56 ± 0.04 (≈ 1.12 µg/mL) | 2.5 ± 0.1 (≈ 1.09 µg/mL) | COc1ccc(CCC(=O)c2c(O)cc(O)c3c2OC(c2ccc(O)cc2)C(O)C3)cc1 (racemic) [XIX] | 8.2 ± 1.0 | 2.5 ± 0.1
8 | 12 ± 1 (≈ 4.88 µg/mL) | 14 ± 1 (≈ 5.69 µg/mL) | 15.9 ± 0.8 (≈ 6.46 µg/mL) | 15 ± 1 (≈ 6.1 µg/mL) | 11.5 ± 0.4 (≈ 4.67 µg/mL) | 11 ± 2 (≈ 4.47 µg/mL) | 7.5 ± 0.4 (≈ 3.05 µg/mL) | 9.5 ± 1.0 (≈ 3.86 µg/mL) | 13 ± 2 (≈ 5.28 µg/mL) | 12 ± 1 (≈ 4.88 µg/mL) | 9.9 ± 0.7 (≈ 4.02 µg/mL) | O=C(CCc1ccccc1)c1c(O)cc(O)c2c1OC(c1ccc(O)cc1)C(O)C2 (centres unmarked) [XVIII] | >50 | 9.9 ± 0.7
